Reference: patent publication US12569536B2, “Macrocyclic peptides for targeted inhibition of autophagy” (Board of Regents, The University of Texas System, priority 2019, dated 2026)
Entries after “also recorded” stand apart in the source; their conditions may differ. Where two headings read alike, the source gives them in different places. One block for each compound: values may come before it. Numbered stars: 1 amine (or outer) side, 2 acyl side, 3 side chain; on linkers, the order of the positions; unused ones are H or OH. Bridge positions count the residues as written; N and C are the ends. Square brackets hold non-standard residues; d marks the D form. Ends that are not written are not given here. Peptide text beside a SMILES is read from it. Glutaryl = O=C(CCCC(=O)[*:2])[*:1]; NMeA = CN[C@@H](C)C(=O)O

Assays:
LC3A [1] = molecular target: T1, LC3A (Homo sapiens, UniProt Q9H492); test: Binding of radiolabeled individual peptide fusions to immobilized LC3A; details: for Binding analysis of clones on immobilized LC3 (FIG. 3E): radiolabeled peptide fusions
T1 construct: made in house
Method: A randomized 8-mer peptide library (with a diversity of 3.78×10^10 unique sequences) was designed, and SUPR peptide mRNA display selections incorporating N-methyl alanine and proteinase-K screening were performed against recombinant LC3 (FIGS. 3A-E). For this, milligram quantities of His6-LC3A were bacterially expressed and purified, chemically biotinylated, and immobilized on streptavidin agarose resin for binding selection. Prior to each round of selection, mRNA-fusion libraries were translated using an in vitro rabbit reticulocyte lysate system incorporating amber-codon nonsense suppression with N-methyl alanine. Fusions were cyclized between the side chain of lysine and the N-terminus and briefly exposed to proteinase K to eliminate any sequences particularly susceptible to proteolysis. Binding selections were carried out by incubating mRNA display libraries with the immobilized His6-LC3A followed by elution in SDS and PCR amplification. After seven rounds of binding selection, the number of PCR cycles required to recover the enriched dsDNA after each binding selection had reduced by 40% (FIG. 3C). […] Over 90% of sequences in the library contained an N-methyl alanine residue at a conserved position adjacent to the fixed lysine residue. […] The majority of sequences contained variations of the canonical Autophagy-Interacting Motif observed in natural LC3 adaptor proteins (FIG. 4). […] Binding was confirmed by incubation of radiolabeled individual peptide fusions with immobilized LC3A (FIG. 3E; Table 2).

OVCAR8 cells = details: 50 μM peptide; for cell viability (MTT), DIRAS3-induced (autophagic) cells: OVCAR8, Dox-induced, 72 hours; for cell viability (MTT), non-DIRAS3 induced cells: OVCAR8, no Dox (non-autophagic), up to 72 hours
Method: (§1) FIGS. 6A-D: SUPR4B in the DIRAS3 autophagy model. FIGS. 6A&B—MTT viability assays with 50 M linear and cyclic SUPR 4B on non-DIRAS3 induced OVCAR8 (FIG. 6B) and SKOv3 (FIG. 6A) cells. […] Induction was performed using 1 g/mL DOX.
(§2) FIGS. 8A-F: SUPR4B in the DIRAS3 autophagy model. […] Inhibition of autophagy by the present compound were hypothesized to restore cellular growth. […] FIGS. 8A&B—MTT viability assays with 50 M linear and cyclic SUPR on non-DIRAS3 induced OVCAR8 (FIG. 8A) and SKOv3 (FIG. 8B) cells. […] FIGS. 8C&D—MTT viability assays on the effect of 50 M linear and cyclic LC3 SUPR4B on DIRAS3-induced OVCAR8 (FIG. 8C) and SKOv3 (FIG. 8D) cells. Induction was performed using 1 g/mL DOX.
(§3) After selection, the library was sequenced and lead compounds were subjected to thermodynamic and cellular assays to develop a structure-activity relationship modeling the interaction between the SUPR peptide and the target.

OVCAR8-ARHI cells = test: Western blotting of p62 and LC3I/LC3II in DIRAS3-induced cells; type: cell-based; details: peptide-treated, 72 h
Method: (§4) FIGS. 7A-B: SUPR4B in the DIRAS3 autophagy model.
(§5) FIGS. 8A-F: SUPR4B in the DIRAS3 autophagy model. […] Induction was performed using 1 g/mL DOX.

SKOv3-ARHI cells = test: as above; type: cell-based; details: peptide-treated, 72 h
Method: as §4, §5

SKOv3 cells = test: MTT viability assay in DIRAS3 autophagy model; details: 50 μM peptide; for cell viability (MTT), DIRAS3-induced (autophagic) cells: SKOv3, Dox-induced, 72 hours; for cell viability (MTT), non-DIRAS3 induced cells: SKOv3, no Dox (non-autophagic), up to 72 hours
Method: as §1, §2, §3

LC3A [2] = molecular target: T1, LC3A; type: binding; details: peptide immobilized on solid phase
Hey cell line [3] = test: MTT viability assay, cisplatin-resistant ovarian cancer cells; type: cell-based; details: cisplatin 10 μM + peptide, 48 hr
Description: (§6) FIGS. 12A-D: SUPR4B1W sensitizes ovarian cancer cells to cisplatin.

OVCAR8 cell line [4] = test: as above; type: cell-based; details: OVCAR8, cisplatin 10 μM + peptide, 48 hr
Description: as §6

ubiquitin = molecular target: T2, ubiquitin (Homo sapiens, UniProt P62987); type: binding; details: peptide immobilized on solid phase
T2 construct: made in house

LC3 = LC3 (Homo sapiens, UniProt Q9H492); test: Surface plasmon resonance binding to LC3
[5] = test system: OVCAR8 orthotopic ovarian tumors; test: Orthotopic ovarian tumor model with carboplatin; type: in vivo; details: for final tumor mass, agent administered alone: SUPR peptide 10 mg/kg or carboplatin 25 mg/kg
Method: FIG. 13: SUPR4B1W sensitizes orthotopic ovarian tumors to carboplatin treatment. Mice were injected IP with 2 million OVCAR8 cells and treated three times per week for four weeks with vehicle control, SUPR peptide (10 mg/kg), carboplatin (25 mg/kg), or combination of SUPR peptide and carboplatin. At the end of four weeks, mice were sacrificed and tumors were dissected. […] For each vertical groups of data points, the top group represents Mouse Weight and the bottom group represents Tumor Weight.
In animal model experiments, mice were implanted with a cisplatin-resistant ovarian cancer cell line (OVCAR8) and treated with carboplatin, SUPR4B1W peptide, or carboplatin+SUPR4B1W peptide for 4 weeks. At the conclusion of the study, the mice were sacrificed and the mass of the intraperitoneal tumors measured.

LC3B = LC3B (Homo sapiens, UniProt Q9GZQ8); type: binding; details: peptide immobilized on solid phase
GABARAP2 = GABARAP2 (Homo sapiens, UniProt P60520); type: binding; details: peptide immobilized on solid phase
Chain of GABARAP2 (P60520 1-116 limits assumed): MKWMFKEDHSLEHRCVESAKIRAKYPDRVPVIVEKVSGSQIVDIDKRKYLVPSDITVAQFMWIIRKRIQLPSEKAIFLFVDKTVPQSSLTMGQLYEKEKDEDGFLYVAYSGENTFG

Hey cell line [6] = test: Western blots of LC3-I/LC3-II and p62, cisplatin-resistant ovarian cancer cells; type: cell-based; details: 48 hr
Description: as §6

OVCAR8 cell line [7] = test: as above; type: cell-based; details: 48 hr
Description: as §6

Atg8 = Atg8 (Saccharomyces cerevisiae, UniProt P38182); type: binding, yeast; details: peptide immobilized on solid phase
Chain of Atg8 (P38182 1-116): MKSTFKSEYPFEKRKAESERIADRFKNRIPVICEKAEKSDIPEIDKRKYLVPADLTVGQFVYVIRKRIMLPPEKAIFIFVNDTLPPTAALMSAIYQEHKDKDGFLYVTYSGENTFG

LC3C = molecular target: T3, LC3C (Homo sapiens, UniProt Q9BXW4); type: binding; details: peptide immobilized on solid phase
T3 construct: made in house
T3 sequence (Q9BXW4 1-126 limits assumed): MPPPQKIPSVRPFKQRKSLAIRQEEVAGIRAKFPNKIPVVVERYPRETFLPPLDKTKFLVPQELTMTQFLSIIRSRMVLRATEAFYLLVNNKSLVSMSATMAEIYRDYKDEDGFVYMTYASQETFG

GABARAP1 = type: binding; details: peptide immobilized on solid phase
[8] = test system: Atg4B:LC3-AMC interaction; test: Atg4B cleavage of LC3-AMC (fluorescence); type: biochemical; details: LC3-AMC 120 nM, Atg4B 220 pM, increasing peptide concentrations
Description: FIG. 9A—In naturally occurring LIMs, the most common amino acid in the leading position of the motif is tryptophan. […] The reason for this may be that there exists only one codon for tryptophan, making it much less likely to appear in a selected peptide than another W-site recognizing amino acid. Modifying the lead position of SUPR 4B (SEQ ID NO: 1) from phenylalanine to tryptophan was hypothesized to produce a peptide that obtains improved binding affinity towards LC3 by more closely mimicking a naturally occurring LIM. Tryptophan may also confer increased hydrophobicity, which may enhance cell uptake. […] Atg19 is provided in SEQ ID NO: 10, Atg32 is provided in SEQ ID NO: 11, Atg3 is provided in SEQ ID NO: 12, Atg4B is provided in SEQ ID NO: 13, p62 is provided in SEQ ID NO: 14, NBR1 is provided in SEQ ID NO: 15. […] FIG. 9D—LC3-AMC (120 nM) was incubated with Atg4B (220 pM) in the presence of SUPR4B1W or a non-functional scrambled variant at the concentrations shown. Cleavage of LC3-AMC was measured by increased fluorescence (λEx=380 nm, […]).
Cleavage of LC3-AMC was measured by increased fluorescence.

[9] = mice, IP OVCAR8, three times per week for four weeks

Compound: CSCC[C@@H]1NC(=O)CCCC(=O)NCCCC[C@@H](C(=O)O)NC(=O)[C@H](C)N(C)C(=O)[C@H](C)NC(=O)[C@H]([C@@H](C)O)NC(=O)[C@H](C(C)C)NC(=O)[C@H](CCCNC(=N)N)NC(=O)[C@H](Cc2c[nH]cn2)NC(=O)[C@@H]2CCCN2C(=O)[C@H](Cc2ccccc2)NC1=O [Clone 4B, MFPHRVTAZK] (MFPHRVTA[NMeA]K-OH; linker N-10 via Glutaryl)
Binding analysis of clones on immobilized LC3 (FIG. 3E) (LC3A [1]): selective LC3 binding; also recorded: nearly quantitative binding
cell viability (MTT), DIRAS3-induced (autophagic) cells (OVCAR8 cells): significant rescue of viability
cell viability (MTT), non-DIRAS3 induced cells (OVCAR8 cells): no statistically significant effect on cell viability
LC3I/LC3II ratio (OVCAR8-ARHI cells): decreased LC3I/LC3II ratio
p62 protein levels (OVCAR8-ARHI cells): increase in p62 protein levels
LC3I/LC3II ratio (SKOv3-ARHI cells): decreased LC3I/LC3II ratio
p62 protein levels (SKOv3-ARHI cells): increase in p62 protein levels
cell viability (MTT), DIRAS3-induced (autophagic) cells (SKOv3 cells): significant rescue of viability
cell viability (MTT), non-DIRAS3 induced cells (SKOv3 cells): no statistically significant effect on cell viability

Compound: CSCC[C@@H]1NC(=O)CCCC(=O)NCCCC[C@@H](C(=O)O)NC(=O)[C@H](C)N(C)C(=O)[C@H](C)NC(=O)[C@H]([C@@H](C)O)NC(=O)[C@H](C(C)C)NC(=O)[C@H](CCCNC(=N)N)NC(=O)[C@H](Cc2c[nH]cn2)NC(=O)[C@@H]2CCCN2C(=O)[C@H](Cc2c[nH]c3ccccc23)NC1=O [SUPR 4B1W] (MWPHRVTA[NMeA]K-OH; linker N-10 via Glutaryl)
binding to LC3A (LC3A [2]): bound tightly
cell viability (MTT) in combination with cisplatin (Hey cell line [3]): re-sensitized the resistant cell lines to cisplatin
cell viability (MTT) in combination with cisplatin (OVCAR8 cell line [4]): re-sensitized the resistant cell lines to cisplatin
binding to ubiquitin (ubiquitin): Almost no binding
cell viability (MTT), DIRAS3-induced (autophagic) cells (OVCAR8 cells): enhanced viability rescue phenotype
cell viability (MTT), DIRAS3-induced (autophagic) cells (OVCAR8 cells; listed as SUPR4B1W): almost completely restores cell viability
cell viability (MTT), non-DIRAS3 induced cells (OVCAR8 cells): no change in cell viability
improvement of apparent dissociation constant relative to SUPR4B (LC3): ~10 fold
number of mice with no detectable tumors, peptide combined with carboplatin ([5]; IP OVCAR8, four weeks, peptide 10 mg/kg + carboplatin 25 mg/kg): 6 mice
final tumor mass, agent administered alone [5, 9]: no change in tumor volume
final tumor mass, peptide combined with carboplatin ([5]; mice, IP OVCAR8, three times per week for four weeks, peptide 10 mg/kg + carboplatin 25 mg/kg): almost completely tumor-free; also recorded: significantly reduced tumor mass
binding to LC3B (LC3B): bound tightly
binding to GABARAP2 (GABARAP2): moderate off-target binding
LC3I/LC3II ratio (SKOv3-ARHI cells): decreased LC3I/LC3II ratio
p62 protein levels (SKOv3-ARHI cells): accumulation of p62
p62 accumulation in combination with cisplatin (Hey cell line [6]; cisplatin 10 μM + peptide 50 µM): triggered accumulation of p62
LC3-I/LC3-II ratios in combination with cisplatin (Hey cell line [6]; cisplatin 10 μM + peptide): dramatically perturbed LC3-I/LC3-II ratios
p62 accumulation in combination with cisplatin (OVCAR8 cell line [7]; OVCAR8, cisplatin 10 μM + peptide 50 µM): triggered accumulation of p62
LC3-I/LC3-II ratios in combination with cisplatin (OVCAR8 cell line [7]; OVCAR8, cisplatin 10 μM + peptide): dramatically perturbed LC3-I/LC3-II ratios
binding to yeast LC3 ortholog Atg8 (Atg8): moderate off-target binding
binding to LC3C (LC3C): Almost no binding
binding to GABARAP1 (GABARAP1): moderate off-target binding
Cleavage of LC3-AMC by Atg4B (fluorescent signal) [8]: significantly decreased fluorescent signal
cell viability (MTT), DIRAS3-induced (autophagic) cells (SKOv3 cells): enhanced viability rescue phenotype
cell viability (MTT), DIRAS3-induced (autophagic) cells (SKOv3 cells; listed as SUPR4B1W): almost completely restores cell viability
cell viability (MTT), non-DIRAS3 induced cells (SKOv3 cells): no change in cell viability

Compound: N.N.O=C([O-])C1(C(=O)[O-])CCC1.[Pt+2] [carboplatin, reference compound]
final tumor mass, agent administered alone [5, 9]: expected reduction in tumor volume

Compound: CCN(CC)CCCC(C)Nc1ccnc2cc(Cl)ccc12 (stereo not drawn) [chloroquine, reference compound]
cell viability (MTT), DIRAS3-induced (autophagic) cells (OVCAR8 cells): did not result in a statistically significant increase in cell viability
cell viability (MTT), DIRAS3-induced (autophagic) cells (SKOv3 cells): did not result in a statistically significant increase in cell viability

Binding analysis of clones on immobilized LC3 (FIG. 3E) (LC3A [1]): selective LC3 binding
Compound: MFSHRVTLZK (MFSHRVTL[NMeA]K; bridge N-10) [Clone 25C]

% of radiolabeled peptide-fusions bound to immobilized LC3 (LC3A [1]): 4%
Compound: MLARSLRDZK (MLARSLRD[NMeA]K; bridge N-10) [Clone 25I]

Binding analysis of clones on immobilized LC3 (FIG. 3E) (LC3A [1]): selective LC3 binding
Compound: MLSDIPVNDK [Clone 4E]

Binding analysis of clones on immobilized LC3 (FIG. 3E) (LC3A [1]): selective LC3 binding
Compound: MNARSLRDZK (MNARSLRD[NMeA]K; bridge N-10) [Clone 25F]

% of radiolabeled peptide-fusions bound to immobilized LC3 (LC3A [1]): 1%
Compound: MSLHRVTVZK (MSLHRVTV[NMeA]K; bridge N-10) [Clone 4C]

Binding analysis of clones on immobilized LC3 (FIG. 3E) (LC3A [1]): selective LC3 binding
Compound: MYARSLRDZK (MYARSLRD[NMeA]K; bridge N-10) [Clone 25A]

% of radiolabeled peptide-fusions bound to immobilized LC3 (LC3A [1]): 3%
Compound: MYTRRVRLZK (MYTRRVRL[NMeA]K; bridge N-10) [Clone 25E]
